# Experimental data reported in US7273877B2, “5-substituted-4-[(substituted phenyl) amino]-2-pyridone derivatives” (Warner-Lambert Company, LLC, priority 2003, dated 2007).
# Tested on: phosphorylation of MAP kinase (ERK) in murine colon 26 (C26) carcinoma cells
# Test: Cellular inhibition of ERK phosphorylation, C26ELSA (pERK ELISA format)
# Format: cell-based
# Conditions: Mus musculus, 1 h, C26 cells treated with test compound for one hour at 37° C.
# Protocol: MEK inhibitors were evaluated by determining their ability to inhibit phosphorylation of MAP kinase (ERK) in murine colon 26 (C26) carcinoma cells. Since ERK1 and ERK2 represent the only known substrates for MEK1and MEK2, the measurement of inhibition of ERK phosphorylation in cells provides direct read out of cellular MEK inhibition by the compounds of the invention. Detection of phosphorylation of ERK was carried out either by Western blot or ELISA format. Briefly, the assays involve treatment of exponentially growing C26 cells with varying concentrations of the test compound (or vehicle control) for one hour at 37° C. For Western blot assay, cells were rinsed free of compound/vehicle and lysed in a solution containing 70 mM NaCl, 50 mM glycerol phosphate, 10 mM HEPES, pH 7.4, 1% Triton X-100, 1 mM Na3VO4, 100 μM PMSF, 10 μM leupeptin and 10 μM pepstatin. Supernatants were then subjected to gel electrophoresis and hybridized to a primary antibody recognizing dually phosphorylated ERK1 and ERK2. To evaluate total MAPK levels, blots were subsequently ‘stripped’ and re-probed with a 1:1 mixture of polyclonal antibodies recognizing unphosphorylated ERK1 and ERK2. For pERK ELISA assay, pERK TiterZyme Enzyme immunometric Assay kits were acquired from Assay Designs, Inc (Ann Arbor, Mich.). Briefly, cells were harvested in lysis solution containing 50 mM β-glycerophosphate, 10 mM HEPES, ph7.4, 70 mM NaCl, 2 mM EDTA and 1% SDS and protein lysates were diluted 1:15 with supplied Assay buffer prior to the execution of the assay. The subsequent steps were carried out essentially as recommended by the manufacturer.
# The inhibition data generated by the above protocols is disclosed in Table I. If several concentrations of inhibitor were tested, IC50 values (the concentration which gives 50% inhibition) were determined graphically from the dose response curve for % inhibition. Otherwise, percent inhibitions at measured concentrations are reported.
row,SMILES,IC50 [µM]
1,"CSc1ccc(Nc2cc(=O)n(C)cc2-c2nnc(NC(CO)CO)o2)c(F)c1 [Example 91, 4-(2-Fluoro-4-methylsulfanyl-phenylamino)-5-[5-(2-hydroxy-1-hydroxymethyl-ethylamino)-[1,3,4]oxadiazol-2-yl]-1-methyl-1H-pyridin-2-one]",> 1
2,"CSc1ccc(Nc2cc(=O)n(C)cc2C(=O)NCCCO)c(F)c1 [Example 85, 4-(2-Fluoro-4-methylsulfanyl-phenylamino)-1-methyl-6-oxo-1,6-dihydro-pyridine-3-carboxylic acid (3-hydroxy-propyl)-amide]",0.15

# Tested on: not given
# Test: not given
# Conditions: not given
row,SMILES,melting point [°C]
1,"O=C(NCCCO)c1cn(CCO)c(=O)cc1Nc1ccc(I)cc1F [Example 23, 4-(2-Fluoro-4-iodoanilino)-1-(2-hydroxyethyl)-N-(3-hydroxypropyl)-6-oxo-1,6-dihydro-3-pyridinecarboxamide]",174 to 176
2,NC(=O)c1cn(CC(=O)O)c(=O)cc1Nc1ccc(I)cc1F [Example 25],296 to 300
3,"CCCn1cc(C(N)=O)c(Nc2ccc(I)cc2F)cc1=O [Example 28, 4-(2-Fluoro-4-iodoanilino)-6-oxo-1-propyl-1,6-dihydro-3-pyridinecarboxamide]",218 to 220
4,"Cn1cc(C(=O)NCCO)c(Nc2ccc(I)cc2F)cc1=O [Example 4, 4-(2-Fluoro-4-iodoanilino)-N-(2-hydroxyethyl)-1-methyl-6-oxo-1,6-dihydro-3-pyridinecarboxamide]",205 to 208
5,Cn1cc(C(N)=O)c(Nc2ccc(C(F)(F)C(F)(F)C(F)(F)C(F)(F)F)cc2F)cc1=O,112 to 118
6,"Cc1ccc(Nc2cc(=O)n(C)cc2C(=O)NCCCO)c(F)c1 [Example 36, 4-(2-Fluoro-4-methylanilino)-N-(3-hydroxypropyl)-1-methyl-6-oxo-1,6-dihydro-3-pyridinecarboxamide]",142 to 145
7,"Cn1cc(C(=O)NOCCO)c(Nc2ccc(Br)cc2F)cc1=O [Example 38, 4-(4-Bromo-2-fluoroanilino)-N-(2-hydroxyethoxy)-1-methyl-6-oxo-1,6-dihydro-3-pyridinecarboxamide]",124 to 128
8,"Cn1cc(C(=O)NOCCO)c(Nc2ccc(F)cc2F)cc1=O [Example 33, 4-(2,4-Difluoroanilino)-N-(2-hydroxyethoxy)-1-methyl-6-oxo-1,6-dihydro-3-pyridinecarboxamide]",232 to 238
9,CCc1ccc(Nc2cc(=O)[nH]cc2C(=O)NCCO)c(F)c1 [Example 13],256 to 258
10,"C#Cc1ccc(Nc2cc(=O)[nH]cc2C(=O)NCCCO)c(F)c1 [Example 15, 4-(4-Ethynyl-2-fluoroanilino)-N-(3-hydroxypropyl)-6-oxo-1,6-dihydro-3-pyridinecarboxamide]",249 to 252
11,"N#CCCCn1cc(C(N)=O)c(Nc2ccc(I)cc2F)cc1=O [Example 26, 1-(3-Cyanopropyl)-4-(2-fluoro-4-iodoanilino)-6-oxo-1,6-dihydro-3-pyridinecarboxamide]",146 to 150
12,"NC(=O)c1cn(CCO)c(=O)cc1Nc1ccc(I)cc1F [Example 22, 4-(2-Fluoro-4-iodoanilino)-1-(2-hydroxyethyl)-6-oxo-1,6-dihydro-3-pyridinecarboxamide]",212 to 215
13,"C#Cc1ccc(Nc2cc(=O)[nH]cc2C(=O)NCCO)c(F)c1 [Example 12, 4-(4-Ethynyl-2-fluoroanilino)-N-(2-hydroxyethyl)-6-oxo-1,6-dihydro-3-pyridinecarboxamide]",265 to 273
14,"NC(=O)c1cn(CCCO)c(=O)cc1Nc1ccc(I)cc1F [Example 32, 4-(2-Fluoro-4-iodoanilino)-1-(3-hydroxypropyl)-6-oxo-1,6-dihydro-3-pyridinecarboxamide]",220 to 223
15,"CCn1cc(C(N)=O)c(Nc2ccc(I)cc2F)cc1=O [Example 27, 1-Ethyl-4-(2-fluoro-4-iodoanilino)-6-oxo-1,6-dihydro-3-pyridinecarboxamide]",260 to 262
16,"COCCOCCn1cc(C(N)=O)c(Nc2ccc(I)cc2F)cc1=O [Example 29, 4-(2-Fluoro-4-iodoanilino)-1-[2-(2-methoxyethoxy)ethyl]-6-oxo-1,6-dihydro-3-pyridinecarboxamide]",114 to 116
17,"CCc1ccc(Nc2cc(=O)[nH]cc2C(=O)NCCCO)c(F)c1 [Example 16, 4-(4-Ethyl-2-fluoroanilino)-N-(3-hydroxypropyl)-6-oxo-1,6-dihydro-3-pyridinecarboxamide]",231 to 233
18,"Cn1cc(C(=O)NCCCO)c(Nc2ccc(F)cc2F)cc1=O [Example 34, 4-(2,4-Difluoroanilino)-N-(3-hydroxypropyl)-1-methyl-6-oxo-1,6-dihydro-3-pyridinecarboxamide]",129 to 132
19,"CCc1ccc(Nc2cc(=O)n(C)cc2C(N)=O)c(F)c1 [Example 18, 4-(4-Ethyl-2-fluoroanilino)-1-methyl-6-oxo-1,6-dihydro-3-pyridinecarboxamide]",268 to 272
20,"Cc1ccc(Nc2cc(=O)n(C)cc2C(=O)NOCCO)c(F)c1 [Example 35, 4-(2-Fluoro-4-methylanilino)-N-(2-hydroxyethoxy)-1-methyl-6-oxo-1,6-dihydro-3-pyridinecarboxamide]",110 to 115

# The remaining lines, values ahead:
row,melting point [°C],SMILES
1,161 to 166,"CC(O)CNC(=O)c1cn(C)c(=O)cc1Nc1ccc(I)cc1F (stereo not drawn) [Example 50, 4-(2-Fluoro-4-iodoanilino)-N-(2-hydroxypropyl)-1-methyl-6-oxo-1,6-dihydro-3-pyridinecarboxamide]"
2,254 to 257,"Cn1cc(C(N)=O)c(Nc2ccc3ccccc3c2)cc1=O [Example 43, 1-Methyl-4-(2-naphthylamino)-6-oxo-1,6-dihydro-3-pyridinecarboxamide]"
3,218 to 220,"Cn1cc(C(=O)O)c(Nc2ccc3c(c2)CCC3)cc1=O [Example 64, 4-(Indan-5-ylamino)-1-methyl-6-oxo-1,6-dihydro-pyridine-3-carboxylic acid]"
4,261 to 266,"Cn1cc(C(N)=O)c(Nc2ccc(C#N)cc2F)cc1=O [Example 54, 4-(4-Cyano-2-fluoroanilino)-1-methyl-6-oxo-1,6-dihydro-3-pyridinecarboxamide]"
5,167 to 170,"Cn1cc(C(=O)NCCCO)c(Nc2ccc(Br)cc2F)cc1=O [Example 39, 4-(4-Bromo-2-fluoroanilino)-N-(3-hydroxypropyl)-1-methyl-6-oxo-1,6-dihydro-3-pyridinecarboxamide]"
6,238 to 242,"Cc1ccc(Nc2cc(=O)n(C)cc2C(=O)O)cc1C [Example 63, 4-(3,4-Dimethyl-phenylamino)-1-methyl-6-oxo-1,6-dihydro-pyridine-3-carboxylic acid]"
7,201 to 206,"Cn1cc(C(=O)NCCCN)c(Nc2ccc(I)cc2F)cc1=O [Example 53, N-(3-Aminopropyl)-4-(2-fluoro-4-iodoanilino)-1-methyl-6-oxo-1,6-dihydro-3-pyridinecarboxamide]"
8,93 to 98,"Cn1cc(C(=O)NC(CO)CO)c(Nc2ccc(I)cc2F)cc1=O [Example 46, 4-(2-Fluoro-4-iodoanilino)-N-[2-hydroxy-1-(hydroxymethyl)ethyl]-1-methyl-6-oxo-1,6-dihydro-3-pyridinecarboxamide]"
9,254 to 257,"Cn1cc(C(=O)O)c(Nc2ccc(I)cc2F)cc1=O [Example 55, 4-(2-fluoro-4-iodoanilino)-1-methyl-6-oxo-1,6-dihydro-3-pyridinecarboxylic acid]"
10,106 to 111,"CN(C)C(=O)c1cn(C)c(=O)cc1Nc1ccc(I)cc1F [Example 52, 4-(2-Fluoro-4-iodoanilino)-N,N,1-trimethyl-6-oxo-1,6-dihydro-3-pyridinecarboxamide]"
11,96 to 101,"Cn1cc(C(=O)NCC(O)CO)c(Nc2ccc(I)cc2F)cc1=O (stereo not drawn) [Example 45, N-(2,3-Dihydroxypropyl)-4-(2-fluoro-4-iodoanilino)-1-methyl-6-oxo-1,6-dihydro-3-pyridinecarboxamide]"
12,198 to 202,"CC(CO)NC(=O)c1cn(C)c(=O)cc1Nc1ccc(I)cc1F (stereo not drawn) [Example 49, 4-(2-Fluoro-4-iodoanilino)-N-(2-hydroxy-1-methylethyl)-1-methyl-6-oxo-1,6-dihydro-3-pyridinecarboxamide]"
13,> 250,"Cn1cc(C(N)=O)c(Nc2ccc(Cl)c(Cl)c2)cc1=O [Example 56, 4-(3,4-Dichloro-phenylamino)-1-methyl-6-oxo-1,6-dihydro-pyridine-3-carboxylic acid amide]"
14,258 to 261,"Cn1cc(C(=O)O)c(Nc2ccc(Cl)c(Cl)c2Cl)cc1=O [Example 65, 1-Methyl-6-oxo-4-(2,3,4-trichloro-phenylamino)-1,6-dihydro-pyridine-3-carboxylic acid]"
